This note sets out measurements from patent US5705499A, “8-arylalkyl- and 8-arylheteroalkyl-5,11-dihydro-6H-dipyrido[3,2-B:2',3'-e][1]diazepines and their use in the treatment of HIV-1 infection” (Boehringer Ingelheim Pharmaceuticals, Inc., priority 1996, dated 1998).

Bounds are passed on as bounds.

The data set has as its system C8166-45 cell line. The data set is described as follows: MTT Assay (cytotoxicity). In kind it is cell-based, human. To be noted: C8166-45 cells, five days.
In the case of `CCN1c2ncc(CCc3ccccc3N)cc2C(=O)N(C)c2cccnc21` [Example 64, 8-[2-(2-Aminophenyl)ethyl]-5,11-dihydro-11-ethyl-5-methyl-6H-dipyrido[3.2-b:2',3'-e][1,4]diazepin-6-one], the “MTT Assay CC30” value is greater than 200 µM. With `CCN1c2ncc(CC(F)c3ccncc3)cc2C(=O)N(C)c2ccc(Cl)nc21` (stereo not drawn) [Example 11, 2-Chloro-5,11-dihydro-11-ethyl-8-[2-fluoro-2-(4-pyridyl)ethyl]-5-methyl-6H-dipyrido-[3,2-b:2',3'-e][1,4]diazepin-6-one] the figure was 150 µM; with `CCN1c2ncc(COc3ccccc3C(=O)OC)cc2C(=O)N(C)c2ccc(Cl)nc21` [Example 110, 2-chloro-5,11-dihydro-11-ethyl-8-(2-(methyoxycarbonyl)phenyloxy)methyl-5-methyl-6H-dipyrido[3,2-b:2',3'-e][1,4]diazepin-6-one], greater than 250 µM; with `CCN1c2ncc(CC(O)c3ccncc3)cc2C(=O)N(C)c2ccc(Cl)nc21` (stereo not drawn) [Example 9, 2-Chloro-5,11-dihydro-11-ethyl-8-[2-hydroxy-2-(pyrid-4yl)ethyl-]5methyl-6H-dipyridol[3,2-b:2',3'-e][1,4]diazepin-6-one], 150 µM. In the case of `CCN1c2ncc([C@@H]3O[C@@H]3c3ccccc3)cc2C(=O)N(C)c2ccc(Cl)nc21` (relative stereo) [Example 46, 2Chloro-5,11-dihydro-11-ethyl-5-methyl-8-(2-phenyloxiranyl)-6H-dipyrido[3,2-b:2',3'-e][1,4]diazepin-6-one], the “MTT Assay CC30” value is greater than 30 µM. With `CCN1c2ncc(CSc3[nH]cnc4nncc3-4)cc2C(=O)N(C)c2ccc(Cl)nc21` [Example 122, 2-chloro-5,11-dihydro-11-ethyl-5-methyl-8-(1H-pyrazolo[3,4-d]pyrimidine-4-ylthio)methyl-6H-dipyrido[3,2-b:2',3'-e][1,4]diazepin-6-one] the figure was 25 µM. For `CCN1c2ncc(COc3cc[n+]([O-])c(C)c3)cc2C(=O)N(C)c2ccc(Cl)nc21` [Example 94, 2-chloro-5,11-dihydro-11-ethyl-5-methyl-8-(N-oxo-2-methylpyrid-4-yloxy)methyl-6H-dipyrido[3,2-b:2',3'-e][1,4]diazepin-6-one], the “MTT Assay CC30” value was determined as 200 µM.

Regarding `CCN1c2ncc(CCc3ccccc3)cc2C(=O)Nc2c1nc(Cl)c(Br)c2C` [Example 75, 3-Bromo-2-chloro-5,11-dihydro-11-ethyl-4-methyl-8-(2-phenylethyl)-6H-dipyrido[3,2-b:2',3'-e][1,4]diazepin-6-one], the “MTT Assay CC30” value is greater than 130 µM. The result for `CCN1c2ncc(COc3ccc(O)cc3)cc2C(=O)N(C)c2ccc(Cl)nc21` [Example 105, 2-chloro-5,11-dihydro-11-ethyl-8-(4-hydroxyphenyloxy)methyl-5-methyl-6H-dipyrido[3,2-b:2',3'-e][1,4]diazepin-6-one] reads 40 µM; that for `CCN1c2ncc(CCc3cccc4[nH]ccc34)cc2C(=O)N(C)c2cccnc21` [Example 29, 5,11-Dihydro-11-ethyl-5methyl-8-[2-(4-indolyl)ethyl]-6H-dipyrido[3,2-b:2',3'-e][1,4]diazepin-6-one], greater than 60 µM. The result for `CCN1c2ncc(CCc3ccc4ccccc4c3)cc2C(=O)N(C)c2ccc(F)nc21` [Example 41, 5,11-Dihydro-11-ethyl-2-fluoro-5-methyl-8-[2-(2-naphthyl)ethyl]-6H-dipyrido[3,2-b:2',3'-e][1,4]diazepin-6-one] reads 20 µM.

Regarding `CCN1c2ncc(C=O)cc2C(=O)N(C)c2ccc(Cl)nc21` [Example 80, 2-chloro-5,11-dihydro-11-ethyl-8-formyl-5-methyl-6H-dipyrido[3,2-b:2',3'-e][1,4]diazepin-6-one], the “MTT Assay CC30” value came out at 65 µM. The result for `CCN1c2ncc(CC(O)c3cc[n+]([O-])cc3)cc2C(=O)N(C)c2ccc(Cl)nc21` (stereo not drawn) [Example 13, 2-Chloro-5,11-dihydro-11-ethyl-8-[2-hydroxy-2-(N-oxo-pyrid-4-yl)ethyl]-5-methyl-6H-dipyrido[3,2-b:2',3'-e][1,4]diazepin-6-one] reads greater than 128 µM; that for `CCN1c2ncc(COc3cc[n+]([O-])cc3)cc2C(=O)N(C)c2cccnc21` [Example 97, 5,11-dihydro-11-ethyl-5-methyl-8-((1-oxo-pyridin-4-yl)oxy)methyl-6H-dipyrido[3,2-b:2',3'-e][1,4]diazepin-6-one], greater than 130 µM.

Regarding `CCN1c2ncc(CCOc3ccncc3)cc2C(=O)N(C)c2cccnc21` [Example 128, 5,11-dihydro-11-ethyl-5-methyl-8-(pyrid-4-yloxy)ethyl-6H-dipyrido[3,2-b:2',3'-e][1,4]diazepin-6-one], the “MTT Assay CC30” value was greater than 256 µM. For `CCN1c2ncc(COc3ccncc3)cc2C(=O)N(C)c2ccc(F)nc21` [Example 125, 5,11-dihydro-11-ethyl-2-fluoro-5-methyl-8-(pyrid-4-yloxy)methyl-6H-dipyrido[3,2-b:2',3'-e][1,4]diazepin-6-one], the “MTT Assay CC30” value turned out to be 160 µM. As to `CCN1c2ncc(CCc3ccncc3)cc2C(=O)N(C)c2ccc(F)nc21` [Example 38, 5,11-Dihydro-11-ethyl-2-fluoro-5-methyl-8-[2-(pyrid-4-yl)ethyl]-6H-dipyrido[3,2-b:2',3'-e][1,4]diazepin-6-one], the “MTT Assay CC30” value lay in the range of 150 to 175 µM.

Regarding `CCN1c2ncc(COc3cccc4[nH]ccc34)cc2C(=O)N(C)c2ccc(Cl)nc21` [Example 114, 2-chloro-5,11-dihydro-11-ethyl-8-(4-indolyloxy)methyl-5-methyl-6H-dipyrido[3,2-b:2',3'-e][1,4]diazepin-6-one], the “MTT Assay CC30” value was 30 µM. With `CCN1c2ncc(CC(O)c3ccncc3)cc2C(=O)N(C)c2ccc(F)nc21` (stereo not drawn) [Example 40, 5,11-Dihydro-11-ethyl-2-fluoro-8-[2-hydroxy-2-(pyrid-4-yl)ethyl]-5-methyl-6H-dipyrido[3,2-b:2',3'-e][1,4]diazepin-6-one], the “MTT Assay CC30” value was greater than 20 µM. With `CCN1c2ncc(CCc3ccnc(C)c3)cc2C(=O)N(C)c2cccnc21` [Example 65, 5,11-Dihydro-11-ethyl-5-methyl-8-[2-(2-methylpyrid-4-yl)ethyl]-6H-dipyrido[3,2-b:2',3'-e][1,4]diazepin-6-one] the figure was 230 µM; with `CCN1c2ncc(C(C)O)cc2C(=O)N(C)c2ccc(Cl)nc21` (stereo not drawn) [Example 86, 2-chloro-5,11-dihydro-11-ethyl-8-(α-hydroxy)ethyl-5-methyl-6H-dipyrido[3,2-b:2',3'-e][1,4]diazepin-6-one], 256 µM; with `CCN1c2ncc(CCl)cc2C(=O)N(C)c2ccc(Cl)nc21` [Example 82, 2-chloro-8-chloromethyl-5,11-dihydro-11-ethyl-5-methyl-6H-dipyrido[3,2-b:2',3'-e][1,4]diazepin-6-one], greater than 256 µM.

Take `CCN1c2ncc(CCc3ccnc(C(N)=O)c3)cc2C(=O)N(C)c2ccc(Cl)nc21` [Example 69, 2-Chloro-5,11-dihydro-11-ethyl-5-methyl-8-[2-(2-carboxamidopyrid-4-yl)ethyl]-6H-dipyrido[3,2-b:2',3'-e][1,4]diazepin-6-one]: the “MTT Assay CC30” value is greater than 128 µM. Take `CCN1c2ncc(CC(=O)c3ccncc3)cc2C(=O)N(C)c2ccc(Cl)nc21` [Example 12, 2-Chloro-5,11-dihydro-11-ethyl-8-[2-oxo-2-(4-pyridyl)ethyl]-5-methyl-6H-dipyrido[3,2-b:2',3'-e][1,4]diazepin-6-one]: the “MTT Assay CC30” value stood at 250 µM. With `CCN1c2ncc(CCc3ccccc3C)cc2C(=O)N(C)c2cccnc21` [Example 62, 5,11-Dihydro-11-ethyl-5-methyl-8-[2-(2-tolyl)ethyl]-6H-dipyrido[3,2-b:2',3'-e][1,4]diazepin-6-one] the figure was greater than 130 µM; with `CCN1c2ncc(CCc3ccnc(C)c3)cc2C(=O)N(C)c2ccc(Cl)nc21` [Example 66, 2-Chloro-5,11-dihydro-11-ethyl-5-methyl-8-[2-(2-methylpyrid-4-yl)ethyl]-6H-dipyrido[3,2-b:2',3'-e][1.4]diazepin-6-one], 100 µM; with `CCN1c2ncc(CN(C)c3ccccc3)cc2C(=O)N(C)c2ccc(Cl)nc21` [Example 116, 2-chloro-5,11-dihydro-11-ethyl-5-methyl-8-(N-methylphenylamino)methyl-6H-dipyrido[3,2-b:2',3'-e][1,4]diazepin-6-one], greater than 60 µM.

With `CCN1c2ncc(COc3ccc(C(=O)OC)cc3)cc2C(=O)N(C)c2ccc(Cl)nc21` [Example 109, 2-chloro-5,11-dihydro-11-ethyl-8-(4-(methoxycarbonyl)phenyloxy)methyl-5-methyl-6H-dipyrido[3,2-b :2',3'-e][1,4]diazepin-6-one], the “MTT Assay CC30” value is greater than 60 µM. The result for `CCN1c2ncc(COc3ccccc3O)cc2C(=O)N(C)c2ccc(Cl)nc21` [Example 106, 2-chloro-5,11-dihydro-11-ethyl-8-(2-hydroxyphenyloxy)methyl-5-methyl-6H-dipyrido[3,2-b:2',3'-e][1,4]diazepin-6-one] reads greater than 60 µM; that for `CCN1c2ncc(CCc3cccc(N)c3)cc2C(=O)N(C)c2ccc(Cl)nc21` [Example 22, 8-[2-(3-Aminophenyl)ethyl]-2-chloro-5,11-dihydro-11-ethyl-5-methyl-6H-dipyrido[3,2-b:2',3'-e][1,4]diazepin-6-one], 60 µM. The result for `CCN1c2ncc(COc3cccc(C(N)=O)c3)cc2C(=O)N(C)c2ccc(Cl)nc21` [Example 113, 8-(3-(aminocarbonyl)phenyloxy)methyl-2-chloro-5,11-dihydro-11-ethyl-5-methyl-6H-dipyrido[3,2-b:2',3'-e][1,4]diazepin-6-one] reads 130 µM; that for `CCN1c2ncc(COc3cccc(OC)c3)cc2C(=O)N(C)c2ccc(Cl)nc21` [Example 108, 2-chloro-5,11-dihydro-11-ethyl-8-(3-methoxyphenyloxy)methyl-5-methyl-6H-dipyrido[3,2-b:2',3'-e][1,4]diazepin-6-one], greater than 120 µM. Take `CCN1c2ncc(COc3cccc(F)c3)cc2C(=O)N(C)c2ccc(Cl)nc21` [Example 101]: the “MTT Assay CC30” value is greater than 60 µM.
